Data set [1] can be described thus: Cyclic voltammetry, reduction potential (FIG. 12). In kind it is physicochemical. The conditions noted are these: 50 mM PBS pH 7.4, modified glassy carbon electrode, scan rate 100 mV/s. The protocol: FIG. 12 is a cyclic voltometry (“CV”) plot of 50 mM PBS (pH=7.4) bare glassy carbon (GC) working electrode and with modified perylene tetracarboxylic anhydride (PTCA) and HCC. (Scan rate: 100 mV/s).
The triethyleneglycol-PDIs (TEG-PDIs) and TEG-NDIs have been analyzed electrochemically and show similar reduction potentials to the HCCs and PEG-HCCs. Electrochemical investigations of HCCs have placed its reduction at −0.7 V vs. Ag/AgCl, as shown by its broad peak in Plot A below.
Accordingly, the triethyleneglycol-PDIs (TEG-PDIs) and TEG-NDIs have been analyzed electrochemically and shown to have similar reduction potentials to the HCCs and PEG-HCCs. Electrochemical investigations of HCCs have placed its reduction at —0.7 V vs. Ag/AgCl (Plot A). 3,4,9,10-Perylenediimide (PDI) derivatives also have redox potentials˜−0.6 V. 1,4,5,8-Naphthalenediimide (NDI) derivatives show discrete reduction steps in the same region (Plot B).

The nature of data set [2]: Superoxide scavenging assay using nitroblue tetrazolium (NBT) and KO2 (FIG. 11). In kind it is biochemical. As to conditions: NBT added 30 s, 60 s, 120 s, 300 s after KO2; diformazan at 560 nm. The protocol:
The antioxidant and buffer/solvent was added to a cuvette, followed by the KO2 solution. After a set time (30 s, 60 s, 120 s, 300 s), NBT was added and the resulting mixture analyzed for the NBT diformazan (λmax=560 nm) by UV-Vis spectroscopy (FIG. 11).
In FIG. 11, PEG-HCCs and p-benzoquinone (pBQ) were also run for comparison.

Data set [3] concerns T cell proliferation. Nature of the data set: In vitro T cell proliferation (FIG. 9). In kind it is cell-based. An excerpt:
This is similar to the activity observed with PEG-HCCs.

The test system of data set [4] is rat T cells. The data set is described as follows: In vitro proliferation of ConA-stimulated rat T cells, micromolar concentration (FIG. 10). In kind it is cell-based. The conditions noted are these: rat T cells stimulated with 1 μg/mL ConA. The protocol:
In vitro analysis of EG3-NDI LNA20, EG8-PDI LNA30, and EG8-NDI, labeled LNA38 (which is Compound A in FIG. 4 where n=8) on T cell proliferation based on micromolar concentration was performed. 1 μg/mL ConA (mitogen) was used to stimulate rat T cells. […] Error bars represent variability between replicate wells. Unstimulated cells (left-hand bar) are shown as a negative control. Statistical analysis was performed between stimulated control cells without treatment (“Stimulated” bar) vs. various doses of the different compounds using a one-way ANOVA and Bonferonni post-hoc tests. *P<0.05, ***P<0.001, ****P<0.0001.

The structures appear in SMILES notation. Entries after “also recorded” stand apart in the source; their conditions may differ.

`O=C1OC(=O)c2ccc3c4ccc5c6c(ccc(c7ccc1c2c73)c64)C(=O)OC5=O` [perylene tetracarboxylic anhydride] showed a reduction potential in data set [1] of −0.7 V vs. Ag/AgCl.

As for `O=C1C=CC(=O)C=C1` [pBQ, p-benzoquinone, reference compound], in data set [2], the “superoxide consumption / reaction with superoxide (reduction of NBT)” value is listed as “near complete consumption of superoxide; also recorded: nearly completely consumed”.

Take `COCCOCCOCCN1C(=O)c2ccc3c4c(ccc(c24)C1=O)C(=O)N(CCOCCOCCOC)C3=O` [LNA20, bis-methoxytriethylene glycol naphthalene diimide]: in data set [3], the “concentrations showing inhibitory effects on T cell proliferation” value was “above 10 μg/mL” and the “effect on T cell proliferation” value is “exhibit an inhibitory effect”. Further, the “superoxide consumption / reaction with superoxide (reduction of NBT)” value in data set [2] is recorded as “reacts with superoxide; also recorded: showed activity”. Moreover, in data set [4], the “effect on T cell proliferation” value was “exhibit an inhibitory effect” and the “relative potency in inhibiting T cell proliferation” value is reported as “most potent”.

The values above are taken from US20160175292A1, “Antioxidants Having Aromatic Structures Reacting with Superoxide” (priority 2014, published 2016).
